Values after ≈ are worked out from the molar mass of the structure shown.
Assays:
Test in all cases: CLSI broth dilution MIC determination
Type in all cases: cell-based
[1] = system: S. pneumoniae mef A genotype (first strain so labelled); settings: Streptococcus pneumoniae, first strain (MP-626 UNT-038)
Method in brief: (§1)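 Broth dilution MICs determined by CLSI standard procedures across a strain panel that includes multidrug- and macrolide-resistant strains. Resistance genotypes may be constitutive or inducible.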

[2] = system: K. pneumoniae MP-548 clinical; settings: Klebsiella pneumoniae, MP548CLINICAL, read-out: MIC
P. aeruginosa MP-7 PAO1 = settings: Pseudomonas aeruginosa, read-out: MIC
[3] = system: A. baumannii MP-576 Clinical-MDR; settings: Acinetobacter baumannii, read-out: MIC
[4] = system: K. pneumoniae MP-546 Clinical-MDR; settings: Klebsiella pneumoniae, read-out: MIC
[5] = system: A. baumannii MP-577 Clinical-AZT low; settings: Acinetobacter baumannii, read-out: MIC
[6] = system: P. aeruginosa MP-8 PAO1:mex (mex-oprM-deletion); settings: Pseudomonas aeruginosa, PAO1
[7] = system: S. aureus (MRSA) MP-513 ST-228 cErm (Clinical-cErm); settings: Staphylococcus aureus, read-out: MIC
Method in brief: as §1

[8] = system: E. coli MP-532 clinical-cErmB; settings: Escherichia coli
Method in brief: as §1

[9] = system: E. coli MP-9 ATCC25922:tolC; settings: Escherichia coli, ATCC25922
Method in brief: as §1

E. coli MP-541 clinical = settings: Escherichia coli, MP541CLINICAL, read-out: MIC
Method in brief: as §1

[10] = system: S. aureus MP-17 ATCCBAA-977 (BAA 977 iErm); settings: Staphylococcus aureus
Method in brief: as §1

Row | SMILES | MIC [1] [µg/mL] | MIC [2] [µg/mL] | MIC (P. aeruginosa MP-7 PAO1) [µg/mL] | MIC [3] [µg/mL] | MIC [4] [µg/mL] | MIC [5] [µg/mL] | MIC [6] [µg/mL] | MIC [7] [µg/mL] | MIC [8] [µg/mL] | MIC [9] [µg/mL] | MIC (E. coli MP-541 clinical) [µg/mL] | MIC [10] [µg/mL]
1 | CC[C@H]1OC(=O)[C@@](C)(F)C(=O)[C@H](C)[C@@H](O[C@@H]2OC(C)CC(N(C)C)C2O)[C@](C)(OC)C[C@@H](C)C(=O)[C@H](C)[C@H]2N(CC#CCn3cc(-c4cccc(N)c4)nn3)C(=O)O[C@]12C (stereo partly drawn) [FSM-100426] | < 0.0312 | – | – | – | – | – | – | – | – | – | – | –
2 | CC[C@H]1OC(=O)[C@@](C)(F)C(=O)[C@H](C)[C@@H](OC2OC(C)CC(N(C)C)C2O)[C@](C)(OC)C[C@@H](C)C(=O)[C@H](C)[C@H]2N(CCCCn3cc(-c4cccc(N)c4)nn3)C(=O)O[C@]12C (stereo partly drawn) [Solithro, solithromycin, reference compound] | – | 32 (≈ 37.9 µM) | > 32 | > 32 | > 32 | 32 (≈ 37.9 µM) | 8 (≈ 9.47 µM) | > 32 | > 32 | 4 (≈ 4.73 µM) | 16 (≈ 18.9 µM) | 0.125 (≈ 0.148 µM)

Reference: US10633407B2, “14-membered ketolides and methods of their preparation and use” (President and Fellows of Harvard College, priority 2014, dated 2020)
